# From ChEMBL document CHEMBL1201862, “PubChem BioAssay data set” (2004)
# Activity calls are given as the source filed them.
# Experiments:
# [1] = target: T1, Sentrin-specific protease 7 (Homo sapiens, UniProt Q9BQF6); assay type: functional;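 also: Luminescence-based dose-response confirmation of ultra-high-throughput screening hits, measuring inhibition of SENP7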
# T1 sequence (Q9BQF6 whole entry): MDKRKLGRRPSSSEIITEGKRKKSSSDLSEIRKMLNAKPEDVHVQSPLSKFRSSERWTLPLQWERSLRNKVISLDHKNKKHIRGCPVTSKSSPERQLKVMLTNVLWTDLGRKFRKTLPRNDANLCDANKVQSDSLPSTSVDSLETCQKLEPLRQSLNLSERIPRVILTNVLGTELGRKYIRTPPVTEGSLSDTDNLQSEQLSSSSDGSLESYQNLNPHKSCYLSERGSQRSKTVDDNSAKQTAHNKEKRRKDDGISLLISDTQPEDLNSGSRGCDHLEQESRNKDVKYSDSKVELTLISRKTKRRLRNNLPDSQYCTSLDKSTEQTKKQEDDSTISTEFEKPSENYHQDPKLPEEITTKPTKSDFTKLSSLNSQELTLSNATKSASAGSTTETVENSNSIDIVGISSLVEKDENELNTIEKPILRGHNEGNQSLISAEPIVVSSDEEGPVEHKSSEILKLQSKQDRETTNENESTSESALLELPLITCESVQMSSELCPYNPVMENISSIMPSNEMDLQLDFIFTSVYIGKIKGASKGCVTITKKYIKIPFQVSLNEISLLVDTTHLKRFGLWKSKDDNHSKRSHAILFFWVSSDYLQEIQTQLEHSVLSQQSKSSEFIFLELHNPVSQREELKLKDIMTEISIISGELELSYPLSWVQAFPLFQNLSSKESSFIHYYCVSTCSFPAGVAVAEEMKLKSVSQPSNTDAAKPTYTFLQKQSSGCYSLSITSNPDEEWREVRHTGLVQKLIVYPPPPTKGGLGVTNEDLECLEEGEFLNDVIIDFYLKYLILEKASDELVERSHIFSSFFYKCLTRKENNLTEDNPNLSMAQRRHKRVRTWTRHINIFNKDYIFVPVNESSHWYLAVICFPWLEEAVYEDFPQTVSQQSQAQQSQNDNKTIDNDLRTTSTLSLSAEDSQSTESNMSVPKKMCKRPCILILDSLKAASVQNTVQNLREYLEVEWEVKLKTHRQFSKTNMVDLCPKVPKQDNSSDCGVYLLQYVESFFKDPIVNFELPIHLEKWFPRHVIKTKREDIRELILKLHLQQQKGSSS
# [2] = target: T2, Sentrin-specific protease 6 (Homo sapiens, UniProt Q9GZR1); assay type: functional;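 also: Luminescence-based dose-response confirmatory assay of SENP6 inhibition, following up an ultra-high-throughput screen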
# T2 sequence (Q9GZR1 whole entry): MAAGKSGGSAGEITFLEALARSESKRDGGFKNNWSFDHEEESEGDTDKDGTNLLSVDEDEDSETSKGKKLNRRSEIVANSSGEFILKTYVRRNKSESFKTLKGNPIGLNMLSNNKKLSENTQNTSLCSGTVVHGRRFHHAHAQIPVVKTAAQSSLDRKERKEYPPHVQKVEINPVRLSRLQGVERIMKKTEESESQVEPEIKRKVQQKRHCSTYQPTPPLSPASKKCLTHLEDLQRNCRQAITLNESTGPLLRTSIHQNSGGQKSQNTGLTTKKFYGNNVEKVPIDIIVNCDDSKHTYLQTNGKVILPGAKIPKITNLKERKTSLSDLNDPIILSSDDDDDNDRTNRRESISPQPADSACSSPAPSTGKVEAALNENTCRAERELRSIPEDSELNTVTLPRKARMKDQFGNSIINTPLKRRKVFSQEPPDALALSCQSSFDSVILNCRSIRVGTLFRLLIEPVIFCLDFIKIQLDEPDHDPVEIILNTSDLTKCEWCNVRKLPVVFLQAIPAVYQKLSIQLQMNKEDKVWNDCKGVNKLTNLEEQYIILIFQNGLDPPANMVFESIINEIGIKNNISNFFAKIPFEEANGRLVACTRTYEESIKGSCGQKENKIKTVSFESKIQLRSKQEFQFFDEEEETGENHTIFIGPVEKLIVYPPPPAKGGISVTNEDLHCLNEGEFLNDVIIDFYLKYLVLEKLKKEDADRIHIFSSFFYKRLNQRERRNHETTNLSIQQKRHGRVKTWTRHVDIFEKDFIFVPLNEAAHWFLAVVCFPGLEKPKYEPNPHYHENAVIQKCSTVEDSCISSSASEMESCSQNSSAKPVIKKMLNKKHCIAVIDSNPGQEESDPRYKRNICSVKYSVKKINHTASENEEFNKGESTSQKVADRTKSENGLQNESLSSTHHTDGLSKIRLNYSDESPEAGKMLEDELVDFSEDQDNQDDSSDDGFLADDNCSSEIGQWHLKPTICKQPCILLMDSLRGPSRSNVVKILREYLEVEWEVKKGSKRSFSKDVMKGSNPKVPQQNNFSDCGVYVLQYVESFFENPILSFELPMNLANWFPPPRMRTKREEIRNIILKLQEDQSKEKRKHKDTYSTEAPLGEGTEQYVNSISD
# Fatty acid synthase [3] = target: T3, Fatty acid synthase (Homo sapiens, UniProt P49327); experiment: inhibition of human FAS-TE enzyme activity – biochemical, endpoint fluorescence intensity, uHTS hits, dose response (AID 624327); assay type: functional;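 also: fluorescence from hydrolysis of an O-methyl fluorescein acyl ester substrate by the enzyme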
# T3 sequence (P49327 whole entry): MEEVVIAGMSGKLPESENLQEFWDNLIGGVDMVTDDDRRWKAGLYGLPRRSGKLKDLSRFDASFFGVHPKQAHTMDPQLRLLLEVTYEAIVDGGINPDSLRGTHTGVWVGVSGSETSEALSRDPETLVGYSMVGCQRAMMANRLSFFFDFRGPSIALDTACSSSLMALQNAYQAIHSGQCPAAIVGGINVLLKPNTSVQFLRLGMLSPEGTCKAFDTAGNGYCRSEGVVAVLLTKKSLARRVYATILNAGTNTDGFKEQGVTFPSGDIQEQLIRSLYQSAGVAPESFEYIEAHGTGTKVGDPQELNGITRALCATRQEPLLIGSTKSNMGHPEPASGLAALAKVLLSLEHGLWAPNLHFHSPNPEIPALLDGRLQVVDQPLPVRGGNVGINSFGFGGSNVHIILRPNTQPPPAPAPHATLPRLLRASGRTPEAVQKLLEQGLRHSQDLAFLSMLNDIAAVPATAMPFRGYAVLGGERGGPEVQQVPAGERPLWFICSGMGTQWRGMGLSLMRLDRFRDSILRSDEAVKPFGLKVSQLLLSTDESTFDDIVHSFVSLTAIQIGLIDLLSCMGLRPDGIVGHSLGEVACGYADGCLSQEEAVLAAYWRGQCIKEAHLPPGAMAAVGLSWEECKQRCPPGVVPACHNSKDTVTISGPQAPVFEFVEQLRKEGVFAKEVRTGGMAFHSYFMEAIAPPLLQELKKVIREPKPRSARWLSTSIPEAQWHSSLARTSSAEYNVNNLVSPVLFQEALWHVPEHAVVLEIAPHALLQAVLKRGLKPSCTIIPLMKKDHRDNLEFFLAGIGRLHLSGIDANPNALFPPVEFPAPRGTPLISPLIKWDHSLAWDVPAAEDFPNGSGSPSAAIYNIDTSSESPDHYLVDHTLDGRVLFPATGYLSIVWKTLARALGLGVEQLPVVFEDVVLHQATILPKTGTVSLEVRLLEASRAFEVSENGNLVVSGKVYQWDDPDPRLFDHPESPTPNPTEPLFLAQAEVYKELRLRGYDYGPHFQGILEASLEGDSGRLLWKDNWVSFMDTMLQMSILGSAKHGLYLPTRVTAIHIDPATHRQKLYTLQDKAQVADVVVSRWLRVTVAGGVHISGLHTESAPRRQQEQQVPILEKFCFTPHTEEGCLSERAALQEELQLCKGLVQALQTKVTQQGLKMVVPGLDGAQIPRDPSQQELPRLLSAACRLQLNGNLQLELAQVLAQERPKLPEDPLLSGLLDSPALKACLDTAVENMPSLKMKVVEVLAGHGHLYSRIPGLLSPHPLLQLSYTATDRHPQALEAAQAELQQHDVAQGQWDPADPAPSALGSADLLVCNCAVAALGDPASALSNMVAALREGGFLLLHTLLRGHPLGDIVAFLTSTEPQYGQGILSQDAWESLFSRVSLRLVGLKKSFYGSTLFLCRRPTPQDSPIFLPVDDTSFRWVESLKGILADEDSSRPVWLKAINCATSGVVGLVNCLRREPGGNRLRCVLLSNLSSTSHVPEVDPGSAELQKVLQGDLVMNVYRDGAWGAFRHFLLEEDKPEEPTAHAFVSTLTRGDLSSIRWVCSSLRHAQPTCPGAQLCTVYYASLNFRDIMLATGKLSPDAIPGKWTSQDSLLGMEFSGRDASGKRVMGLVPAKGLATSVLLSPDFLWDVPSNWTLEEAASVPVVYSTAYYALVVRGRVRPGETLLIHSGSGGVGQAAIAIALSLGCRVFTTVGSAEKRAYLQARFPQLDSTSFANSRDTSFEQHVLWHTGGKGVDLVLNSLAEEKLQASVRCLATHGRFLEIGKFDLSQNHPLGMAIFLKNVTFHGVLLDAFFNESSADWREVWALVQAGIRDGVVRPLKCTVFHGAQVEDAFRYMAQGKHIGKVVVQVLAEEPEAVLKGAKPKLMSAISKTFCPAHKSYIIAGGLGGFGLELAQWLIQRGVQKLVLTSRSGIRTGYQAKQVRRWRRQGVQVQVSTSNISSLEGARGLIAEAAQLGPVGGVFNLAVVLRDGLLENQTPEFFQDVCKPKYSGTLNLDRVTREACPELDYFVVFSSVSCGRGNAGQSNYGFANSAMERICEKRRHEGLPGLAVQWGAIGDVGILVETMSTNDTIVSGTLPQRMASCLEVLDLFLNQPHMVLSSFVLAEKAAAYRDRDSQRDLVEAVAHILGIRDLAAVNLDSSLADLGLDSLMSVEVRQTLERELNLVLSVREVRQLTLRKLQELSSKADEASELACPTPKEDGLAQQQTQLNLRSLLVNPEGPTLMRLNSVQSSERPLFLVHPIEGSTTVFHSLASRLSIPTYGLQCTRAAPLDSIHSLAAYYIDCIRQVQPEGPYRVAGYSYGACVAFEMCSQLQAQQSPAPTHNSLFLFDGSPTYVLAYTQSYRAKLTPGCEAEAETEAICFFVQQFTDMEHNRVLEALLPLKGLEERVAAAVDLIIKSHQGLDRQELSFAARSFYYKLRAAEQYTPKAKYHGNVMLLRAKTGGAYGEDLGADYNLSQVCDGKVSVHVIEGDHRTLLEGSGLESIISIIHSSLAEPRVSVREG
# [4] = MIN6 cell viability loss – mouse insulinoma, cytotoxicity control, dose response (AID 2122); assay type: functional;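 also: confirmatory high-throughput counterscreen run to flag cytotoxic compounds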
# [5] = decrease of insulin promoter-GFP reporter – imaging, high-content screening, mouse beta cells (AID 1628); assay type: functional; details: MIN6
# Fatty acid synthase [6] = target: T3, Fatty acid synthase; experiment: inhibition of human FAS-TE enzyme activity – biochemical, kinetic fluorescence intensity, dose response (AID 624326); assay type: functional;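 also: rate of fluorescence rise from hydrolysis of a fluorogenic O-methyl fluorescein ester substrate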
# Caspase-3 = target: T4, Caspase-3 (Homo sapiens, UniProt P42574); assay type: functional;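 also: Dose-response selectivity test against caspase-3 for candidate inhibitors of sentrin-specific proteases (SENPs)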
# T4 sequence (P42574 whole entry): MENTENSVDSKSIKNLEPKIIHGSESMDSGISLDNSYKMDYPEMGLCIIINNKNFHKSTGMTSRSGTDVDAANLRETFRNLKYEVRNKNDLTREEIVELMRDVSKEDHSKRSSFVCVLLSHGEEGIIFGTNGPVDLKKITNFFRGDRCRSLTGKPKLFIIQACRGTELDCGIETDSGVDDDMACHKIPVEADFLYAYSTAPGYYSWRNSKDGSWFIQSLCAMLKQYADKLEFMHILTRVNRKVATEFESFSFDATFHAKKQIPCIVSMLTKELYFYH
# INS1 = experiment: INS-1E survival protection against cytokine death – cell-based, luminescence, retest, dose response (AID 449756); assay type: functional; details: Rattus norvegicus;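 also: cell death triggered by IL-1 beta plus TNF-alpha plus IFN-gamma mixture; protective hits raise ATP signal compared with cytokine alone wells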
# [7] = target: T5, Sentrin-specific protease 8 (Homo sapiens, UniProt Q96LD8); assay type: functional;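 also: luminescence read-out of SENP8 inhibition, dose-response confirmation following an ultra-high-throughput screen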
# T5 sequence (Q96LD8 whole entry): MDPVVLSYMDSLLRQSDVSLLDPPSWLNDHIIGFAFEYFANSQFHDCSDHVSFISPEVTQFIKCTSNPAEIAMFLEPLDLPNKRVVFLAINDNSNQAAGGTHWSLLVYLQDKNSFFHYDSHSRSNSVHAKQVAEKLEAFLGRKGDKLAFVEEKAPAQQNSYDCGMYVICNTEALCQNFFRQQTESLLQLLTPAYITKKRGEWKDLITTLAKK
# HEK293 = experiment: cells; assay type: functional, cell-based; details: Homo sapiens
# [8] = target: Nuclear receptor subfamily 0 group B member 1 (Homo sapiens, UniProt P51843); experiment: Luminescence-based cell-based high throughput dose response assay for inhibitors of the orphan nuclear receptor subfamily 0, group B, member 1 (DAX1; NR0B1). [Related pubchem assays (depositor defined):AID504766, AID504790]; assay type: functional
# Nuclear receptor subfamily 0 group B member 1, sequence (P51843 whole entry): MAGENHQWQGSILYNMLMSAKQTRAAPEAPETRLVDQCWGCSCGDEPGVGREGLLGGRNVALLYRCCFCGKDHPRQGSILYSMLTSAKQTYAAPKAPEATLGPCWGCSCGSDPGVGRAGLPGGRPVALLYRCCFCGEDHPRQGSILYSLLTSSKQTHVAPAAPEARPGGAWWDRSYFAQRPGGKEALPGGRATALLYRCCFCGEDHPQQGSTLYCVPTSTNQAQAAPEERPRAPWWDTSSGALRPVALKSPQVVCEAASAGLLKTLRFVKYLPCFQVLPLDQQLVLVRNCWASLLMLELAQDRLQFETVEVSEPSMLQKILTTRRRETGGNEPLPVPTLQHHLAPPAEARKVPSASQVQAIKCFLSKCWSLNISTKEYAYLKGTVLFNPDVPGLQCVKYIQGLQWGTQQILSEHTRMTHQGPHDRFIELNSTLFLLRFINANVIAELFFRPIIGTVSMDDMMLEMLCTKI
# [9] = reduced cellular PGC1a acetyl-lysine signal – cell-based, cherry-picked samples, dose response (AID 720514); assay type: functional;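 also: potency may reflect raised or lowered acetylation signal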
# A-375 = experiment: MITF: Counter assay: A375 proliferation Measured in Cell-Based System Using Plate Reader - 2084-03_Inhibitor_Dose_DryPowder_Activity. [Related pubchem assays (depositor defined):AID488944]; assay type: functional; details: Homo sapiens
# [10] = target: T6, Microphthalmia-associated transcription factor (Homo sapiens, UniProt O75030); experiment: reducers of TRPM1 reporter luminescence, concentration series – cell-based, SK-MEL-5, cherry-picked, set 3, MITF inhibitor project, dose response (AID 493073); assay type: functional;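 also: SK-MEL-5 melanoma cells with luciferase driven by the MITF target TRPM1 promoter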
# T6 sequence (O75030 whole entry): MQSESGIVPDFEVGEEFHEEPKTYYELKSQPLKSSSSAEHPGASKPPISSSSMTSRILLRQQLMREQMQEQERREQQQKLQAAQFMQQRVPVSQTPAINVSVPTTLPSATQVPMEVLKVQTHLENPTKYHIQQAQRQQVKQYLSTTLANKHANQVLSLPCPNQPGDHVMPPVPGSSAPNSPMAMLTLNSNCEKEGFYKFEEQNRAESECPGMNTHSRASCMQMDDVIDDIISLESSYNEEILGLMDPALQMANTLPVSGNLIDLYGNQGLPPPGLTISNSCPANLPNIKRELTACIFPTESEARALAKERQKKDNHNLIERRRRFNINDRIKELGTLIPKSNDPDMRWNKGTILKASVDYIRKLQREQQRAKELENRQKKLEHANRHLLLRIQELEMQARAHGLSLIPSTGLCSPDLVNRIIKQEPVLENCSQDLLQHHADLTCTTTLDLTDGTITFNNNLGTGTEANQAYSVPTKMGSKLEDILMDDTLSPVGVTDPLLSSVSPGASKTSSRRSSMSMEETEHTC
structure (smiles),measurement,setting,value
O=C(Nc1ccc(OC(F)(F)F)cc1)Nc1cccc([N+](=O)[O-])c1,IC50,[1],8.57 µM (active)
same,IC50,[2],> 100 µM (inactive)
same,IC50,Fatty acid synthase [3],6.74 µM (active)
same,IC50,[4],1.27 µM (active)
same,IC50,[5],1.42 µM (active)
same,IC50,Fatty acid synthase [6],6.14 µM (active)
same,IC50,Caspase-3,89.9 µM (active)
same,AC50,INS1,2.8 µM (active)
same,IC50,[7],> 100 µM (inactive)
CCCCN(C(C)=O)C1CC(=O)N(c2ccc(OCCC)cc2)C1=O (centres undefined),IC50,HEK293,> 67.5 µM (inactive)
same,IC50,[8],> 67.5 µM (inactive)
Cc1cccc(NC(=O)CNC(=O)Cn2ncc(Cl)c(Cl)c2=O)c1C,AC50,[9],6.82 µM (active)
same,AC50,A-375,20.5 µM (active)
same,AC50,[10],13.4 µM (active)
